Among the data in patent US8569344B2, “N-piperidinyl acetamide derivatives as calcium channel blockers” (Zalicus Pharmaceuticals Ltd., priority 2008, dated 2013) are IC50 values, retold here.

Read-outs that look alike come from different tables or passages of the source. A value given as a limit tells only on which side of the number the result lay.

Format in all cases: cell-based
One series has as its target hERG K+ channel (Homo sapiens, UniProt Q12809). The experiment in a line: hERG K+ Channel Block.
In series [1] the target is T1, human α1H T-type channels (Homo sapiens, UniProt O95180).
T1 construct: expressed in transfected cells; host or cells: HEK 293
Put plainly: T-type calcium channel block, whole cell patch clamp in HEK cells (α1H). Particulars: HEK cells, patch clamp, mainly non-inactivated protocol; values above 10 μM shown as 10 μM; read-out: T-type Calcium Channel Block α1H IC50.

The target in series [2] is T2, human α1G T-type channels (Homo sapiens, UniProt O43497).
T2 construct: expressed in transfected cells; host or cells: HEK 293
Put plainly: T-type calcium channel block, whole cell patch clamp in HEK cells (α1G). The settings on record: HEK cells, patch clamp, mainly non-inactivated protocol; values above 10 μM shown as 10 μM, below 0.30 μM shown as 0.30 μM; read-out: T-type Calcium Channel Block α1G IC50. (In general: The patch-clamp technique gives a direct electrical read-out from membranes.)

T2 sequence (O43497 whole entry): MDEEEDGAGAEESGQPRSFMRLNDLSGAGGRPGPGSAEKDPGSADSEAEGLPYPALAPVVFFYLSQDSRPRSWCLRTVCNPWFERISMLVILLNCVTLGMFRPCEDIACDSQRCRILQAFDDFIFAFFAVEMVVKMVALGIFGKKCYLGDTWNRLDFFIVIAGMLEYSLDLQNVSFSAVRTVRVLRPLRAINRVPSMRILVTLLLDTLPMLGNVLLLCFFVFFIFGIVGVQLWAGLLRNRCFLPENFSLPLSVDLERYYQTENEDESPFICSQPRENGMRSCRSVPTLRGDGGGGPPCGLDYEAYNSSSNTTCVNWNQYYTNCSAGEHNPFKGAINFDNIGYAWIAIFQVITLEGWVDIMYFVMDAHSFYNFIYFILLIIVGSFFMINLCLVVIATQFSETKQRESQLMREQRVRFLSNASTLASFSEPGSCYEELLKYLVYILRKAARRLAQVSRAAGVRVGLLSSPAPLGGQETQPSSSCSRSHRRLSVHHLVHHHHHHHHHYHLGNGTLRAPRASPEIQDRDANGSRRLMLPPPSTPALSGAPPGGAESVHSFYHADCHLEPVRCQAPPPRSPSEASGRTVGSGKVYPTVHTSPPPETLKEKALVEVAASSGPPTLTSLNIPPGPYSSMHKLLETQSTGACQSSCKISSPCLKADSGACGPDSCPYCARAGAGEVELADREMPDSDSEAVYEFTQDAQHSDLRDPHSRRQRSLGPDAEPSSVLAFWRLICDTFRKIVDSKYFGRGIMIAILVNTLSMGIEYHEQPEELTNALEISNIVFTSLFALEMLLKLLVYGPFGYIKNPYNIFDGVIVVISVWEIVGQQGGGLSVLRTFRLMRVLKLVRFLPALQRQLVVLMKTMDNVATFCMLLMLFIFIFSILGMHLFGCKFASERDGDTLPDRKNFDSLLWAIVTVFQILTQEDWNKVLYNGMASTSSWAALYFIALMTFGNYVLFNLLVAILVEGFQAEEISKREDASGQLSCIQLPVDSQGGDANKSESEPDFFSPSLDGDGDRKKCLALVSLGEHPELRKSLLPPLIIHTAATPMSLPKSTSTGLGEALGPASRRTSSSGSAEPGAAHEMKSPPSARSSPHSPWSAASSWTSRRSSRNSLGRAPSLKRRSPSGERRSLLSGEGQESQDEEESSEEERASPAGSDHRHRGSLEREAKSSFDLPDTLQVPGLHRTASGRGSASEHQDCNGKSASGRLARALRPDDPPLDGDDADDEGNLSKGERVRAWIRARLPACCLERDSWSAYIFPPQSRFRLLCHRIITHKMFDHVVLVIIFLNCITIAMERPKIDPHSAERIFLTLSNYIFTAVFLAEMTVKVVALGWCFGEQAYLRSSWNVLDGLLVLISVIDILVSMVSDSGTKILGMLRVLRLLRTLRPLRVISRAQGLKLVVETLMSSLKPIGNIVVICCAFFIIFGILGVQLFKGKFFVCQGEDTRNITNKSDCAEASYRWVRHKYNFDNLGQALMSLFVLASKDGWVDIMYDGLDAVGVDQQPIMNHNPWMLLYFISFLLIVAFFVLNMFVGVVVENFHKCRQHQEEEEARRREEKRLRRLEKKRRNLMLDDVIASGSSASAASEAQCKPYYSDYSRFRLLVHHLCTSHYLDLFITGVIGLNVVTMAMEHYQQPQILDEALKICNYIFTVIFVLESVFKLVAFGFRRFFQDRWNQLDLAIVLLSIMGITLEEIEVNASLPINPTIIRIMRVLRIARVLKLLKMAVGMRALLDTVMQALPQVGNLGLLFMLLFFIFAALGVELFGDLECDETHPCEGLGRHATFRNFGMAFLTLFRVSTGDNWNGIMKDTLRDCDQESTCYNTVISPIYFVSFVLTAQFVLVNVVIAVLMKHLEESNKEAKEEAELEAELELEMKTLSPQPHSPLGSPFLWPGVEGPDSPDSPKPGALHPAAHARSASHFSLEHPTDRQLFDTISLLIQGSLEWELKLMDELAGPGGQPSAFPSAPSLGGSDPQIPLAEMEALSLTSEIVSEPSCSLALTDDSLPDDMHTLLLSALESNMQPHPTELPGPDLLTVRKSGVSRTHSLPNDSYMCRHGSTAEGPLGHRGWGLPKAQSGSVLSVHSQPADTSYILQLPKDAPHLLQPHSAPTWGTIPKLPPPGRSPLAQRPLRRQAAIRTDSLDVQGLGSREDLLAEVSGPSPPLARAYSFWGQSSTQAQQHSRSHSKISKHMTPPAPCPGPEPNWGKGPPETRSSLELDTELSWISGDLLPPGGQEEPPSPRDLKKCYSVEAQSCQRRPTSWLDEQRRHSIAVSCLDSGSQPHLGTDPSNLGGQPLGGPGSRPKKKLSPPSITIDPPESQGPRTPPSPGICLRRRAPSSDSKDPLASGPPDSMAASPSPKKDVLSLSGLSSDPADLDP
hERG K+ channel, sequence (Q12809 whole entry): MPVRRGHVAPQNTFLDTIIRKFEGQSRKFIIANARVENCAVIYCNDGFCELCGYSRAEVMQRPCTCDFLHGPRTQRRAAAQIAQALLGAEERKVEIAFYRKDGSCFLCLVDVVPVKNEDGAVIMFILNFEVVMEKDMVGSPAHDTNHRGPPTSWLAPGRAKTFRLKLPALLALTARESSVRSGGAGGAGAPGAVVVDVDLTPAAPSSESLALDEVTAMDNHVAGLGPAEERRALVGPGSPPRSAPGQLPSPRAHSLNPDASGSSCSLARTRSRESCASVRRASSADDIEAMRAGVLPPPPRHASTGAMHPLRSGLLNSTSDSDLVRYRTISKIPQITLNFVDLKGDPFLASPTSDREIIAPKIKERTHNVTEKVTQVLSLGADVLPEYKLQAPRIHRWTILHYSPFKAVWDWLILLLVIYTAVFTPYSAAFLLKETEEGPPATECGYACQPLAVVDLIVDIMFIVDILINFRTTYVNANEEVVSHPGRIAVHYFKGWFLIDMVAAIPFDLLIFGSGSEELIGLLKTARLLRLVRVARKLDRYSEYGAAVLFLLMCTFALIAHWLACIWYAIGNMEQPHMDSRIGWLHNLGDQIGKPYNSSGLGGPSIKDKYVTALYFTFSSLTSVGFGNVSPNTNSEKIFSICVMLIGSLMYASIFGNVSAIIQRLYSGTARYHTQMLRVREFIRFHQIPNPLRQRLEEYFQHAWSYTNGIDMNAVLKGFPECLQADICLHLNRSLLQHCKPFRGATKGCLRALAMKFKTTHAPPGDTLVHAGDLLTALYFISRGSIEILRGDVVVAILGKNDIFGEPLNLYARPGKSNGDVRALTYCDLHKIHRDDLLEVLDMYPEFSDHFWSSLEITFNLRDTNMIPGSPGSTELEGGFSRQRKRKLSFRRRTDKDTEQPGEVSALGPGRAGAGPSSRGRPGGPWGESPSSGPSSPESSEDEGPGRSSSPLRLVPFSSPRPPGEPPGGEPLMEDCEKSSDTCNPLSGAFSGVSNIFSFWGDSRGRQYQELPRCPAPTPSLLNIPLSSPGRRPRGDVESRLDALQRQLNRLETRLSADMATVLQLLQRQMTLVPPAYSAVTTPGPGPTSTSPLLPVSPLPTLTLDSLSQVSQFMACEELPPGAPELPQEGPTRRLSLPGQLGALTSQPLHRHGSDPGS

Consider `CC(C)(C)NC(=O)CN1CCC(CNC(=O)c2cccc(C(F)(F)F)c2)CC1` [Compound 371, N-((1-(2-(tert-butylamino)-2-oxoethyl)piperidin-4-yl)methyl)-3-(trifluoromethyl)benzamide], for which the IC50 against hERG K+ channel was 14.7 µM; in series [1], 0.14 µM; in series [2] it was less than 0.3 µM.
Turning to `CN(C(=O)CN1CCC(CNC(=O)c2cccc(Cl)c2)CC1)C(C)(C)C` [Compound 543, N-((1-(2-(tert-butyl(methyl)amino)-2-oxoethyl)piperidin-4-yl)methyl)-3-chlorobenzamide], the figures for the IC50 (at hERG K+ channel; in series [1]; in series [2]) were 5.2 µM, 0.41 µM and 0.58 µM, respectively.
On to `COc1cc(F)cc(C(=O)NCC2CCN(CC(=O)N(C)C(C)(C)C)CC2)c1` [Compound 541, N-((1-(2-(tert-butyl(methyl)amino)-2-oxoethyl)piperidin-4-yl)methyl)-3-fluoro-5-methoxybenzamide], for which the IC50 was no less than 17 µM against hERG K+ channel (human), 0.41 µM in series [1] and 0.31 µM in series [2].
The matching figures for `Cc1cc(F)cc(C(=O)NCC2CCN(CC(=O)NC3(C)CCC3)CC2)c1` [Compound 476, 3-fluoro-5-methyl-N-((1-(2-(1-mtrhylcyclobutylamino)-2-oxoethyl)piperidin-4-yl)methyl) benzamide]: no less than 16.6 µM, 0.14 µM and less than 0.3 µM.
Take `CC(C)(C)C(=O)NCCN1CCC(CC(=O)Nc2cc(C(F)(F)F)cc(C(F)(F)F)c2)CC1` [Compound 334, N-(2-(4-(2-(3,5-bis(trifluoromethyl)phenylamino)-2-oxoethyl)piperidin-1-yl)ethyl)pivalamide]: the IC50 on hERG K+ channel was 0.92 µM; in series [1], 0.22 µM; in series [2] it was less than 0.3 µM.
With `COc1cc(F)cc(C(=O)NCC2CCN(CCNC(=O)C(C)(C)C(F)(F)F)CC2)c1` [Compound 490, 3-fluoro-5-methoxy-N-((1-(2-(3,3,3-trifluoro-2,2-dimethylpropanamido)ethyl)piperidin-4-yl)methyl)benzamide], the IC50 against hERG K+ channel was 10.9 µM; in series [1], 0.15 µM; in series [2] it was less than 0.3 µM.
For the compound `Cc1cc(C)cc(C(=O)NCC2CCN(CC(=O)NC(C)(C)C)CC2)c1` [Compound 362, N-((1-(2-(tert-butylamino)-2-oxoethyl)piperidin-4-yl)methyl)-3,5-dimethylbenzamide], the results for the IC50 (against hERG K+ channel (human); in series [1]; in series [2]) were no less than 8.3 µM, 0.17 µM and less than 0.3 µM, respectively.
The matching figures for `Cc1cc(F)cc(C(=O)NCC2CCN(CC(=O)NC(C)(C)C)CC2)c1` [Compound 363, N-((1-(2-(tert-buylamino)-2-oxoethyl)piperidin-4-yl)methyl)-3-fluoro-5-methylbenzamide]: no less than 8.3 µM, 0.2 µM and less than 0.3 µM.
Consider `CN(C(=O)CN1CCC(CNC(=O)c2cc(Cl)cc(Cl)c2)CC1)C(C)(C)C` [Compound 552, N-((1-(2-(tert-butyl(methyl)amino)-2-oxoethyl)piperidin-4-yl)methyl)-3,5-dichlorobenzamide], for which the values for the half-inhibitory concentration (IC50) (on hERG K+ channel; in series [1]; in series [2]) were 1.8 µM, 0.06 µM and less than 0.3 µM, respectively.
In the case of `O=C(NCC1CCN(CCNC(=O)C2(C(F)(F)F)CC2)CC1)c1cccc(C(F)(F)F)c1` [Compound 473, 3-(trifluoromethyl)-N-((1-(2-(1-(trifluoromethyl)cyclopropanecarbox-amido)ethyl)piperidin-4-yl)methyl) benzamide], the figures for the IC50 (against hERG K+ channel; in series [1]; in series [2]) were 2.2 µM, 0.13 µM and 0.68 µM, respectively.
For the compound `COc1cc(F)cc(C(=O)NCC2CCN(CCNS(=O)(=O)C(C)(C)C)CC2)c1` [Compound 577, N-((1-(2-(1,1-dimethylethylsulfonamido)ethyl)piperidin-4-yl)methyl)-3-fluoro-5-methoxybenzamide], the IC50 is no less than 17 µM on hERG K+ channel (human), 0.45 µM in series [1] and less than 0.3 µM in series [2].
For `CN(C(=O)CN1CCC(CNC(=O)c2cc(F)cc(Cl)c2)CC1)C1(C)CCC1` [Compound 583, 3-chloro-5-fluoro-N-((1-(2-(methyl(1-methylcyclobutyl)amino)-2-oxoethyl)piperidin-4-yl)methyl)benzamide], the IC50 against hERG K+ channel is 1.7 µM; in series [1], 0.15 µM; in series [2], less than 0.3 µM.
For `Cc1cc(F)cc(C(=O)NCC2CCN(CCNC(=O)C(C)(C)C(F)(F)F)CC2)c1` [Compound 489, 3-fluoro-5-methyl-N-((1-(2-(3,3,3-trifluoro-2,2-dimethylpropanamido)ethyl)piperidin-4-yl)methyl)benzamide] the same measures were 8.8 µM, 0.12 µM and 0.37 µM.
`COc1cc(OC)cc(C(=O)NCC2CCN(CCNC(=O)C3(C(F)(F)F)CC3)CC2)c1` [Compound 500, 3,5-dimethoxy-N-((1-(2-(1-(trifluoromethyl)cyclopropanecarbox-amido)ethyl)piperidin-4-yl)methyl) benzamide]: the IC50 at hERG K+ channel is 5.5 µM; in series [1] it was 0.18 µM; in series [2] it was less than 0.3 µM.
In the case of `COc1cc(F)cc(C(=O)NCC2CCN(CC(=O)NC(C)(C)C)CC2)c1` [Compound 366, N-((1-(2-(tert-butylamino)-2-oxoethyl)piperidin-4-yl)methyl)-3-fluoro-5-methoybenzamide], the IC50 against hERG K+ channel (human) is no less than 8.3 µM; in series [1], 0.12 µM; in series [2], less than 0.3 µM.
The matching figures for `COc1cc(OC)cc(C(=O)NCC2CCN(CC(=O)NC3(C)CCC3)CC2)c1` [Compound 478, 3,5-dimethoxy-N-((1-(2-(1-methylcyclobutylamino)-2-oxoethyl)piperidin-4-yl)methyl) benzamide]: no less than 16.6 µM, 0.11 µM and less than 0.3 µM.
In the case of `O=C(NCC1CCN(CCNC(=O)C2(C(F)(F)F)CCC2)CC1)c1cc(F)cc(Cl)c1` [Compound 511, 3-chloro-5-fluoro-N-((1-(2-(1-(trifluoromethyl)cyclobutanecarboxamido)ethyl)piperidin-4-yl)methyl)benzamide], the results for the IC50 (on hERG K+ channel; in series [1]; in series [2]) were 2.9 µM, 0.09 µM and less than 0.3 µM, respectively.
For the compound `COCC(C)(C)NC(=O)CN1CCC(CNC(=O)c2cc(F)cc(Cl)c2)CC1` [Compound 538, 3-chloro-5-fluoro-N-((1-(2-(1-methoxy-2-methylpropan-2-ylamino)-2-oxoethyl)piperidin-4-yl)methyl)benzamide], the IC50 at hERG K+ channel is 13 µM; in series [1], 0.06 µM; in series [2], less than 0.3 µM.
For `O=C(NCC1CCN(CC(=O)N2CCC[C@H]2C(F)(F)F)CC1)c1cccc(OC(F)(F)F)c1` [Compound 471, (S)-N-((1-(2-oxo-2-(2-(trifluoromethyl)pyrrolidin-1-yl)ethyl)piperidin-4-yl)methyl)-3-(trifluoromethoxy)benzamide] the same measures were 2.3 µM, 0.06 µM and less than 0.3 µM.
For `CN(C(=O)CN1CCC(CNC(=O)c2cc(F)cc(Cl)c2)CC1)C(C)(C)C` [Compound 544, N-((1-(2-(tert-butyl(methyl)amino)-2-oxoethyl)piperidin-4-yl)methyl)-3-chloro-5-fluorobenzamide] the same measures were 6 µM, 0.17 µM and less than 0.3 µM.
Regarding `CC(C)(C)[S+]([O-])NCCN1CCC(CNC(=O)c2cc(F)cc(C(F)(F)F)c2)CC1` (stereo not drawn) [Compound 537, N-((1-(2-(1,1-dimethylethylsulfinamido)ethyl)piperidin-4-yl)methyl)-3-fluoro-5-(trifluoromethyl)benzamide], the concentration for half-maximal inhibition (IC50) was no less than 17 µM on hERG K+ channel (human), 0.36 µM in series [1] and 2.47 µM in series [2].
The matching figures for `COc1cc(F)cc(C(=O)NCC2CCN(CC(=O)NC3(C)CCC3)CC2)c1` [Compound 477, 3-fluoro-5-methoxy-N-((1-(2-(1-methylcyclobutylamino)-2-oxoethyl)piperidin-4-yl)methyl) benzamide]: no less than 16.6 µM, 0.06 µM and less than 0.3 µM.
On to `CS(=O)(=O)NC1(CN2CCC(CC(=O)Nc3cc(C(F)(F)F)cc(C(F)(F)F)c3)CC2)CCCC1` [Compound 160, N-(3,5-bis(trifluoromethyl)phenyl)-2-(1-((1-(methylsulfonamido)cyclopentyl)methyl)piperidin-4-yl)acetamide], for which the figures for the half-maximal inhibitory concentration (IC50) (on hERG K+ channel; in series [1]; in series [2]) were 0.19 µM, 0.5 µM and 0.02 µM, respectively.
For the compound `CN(C(=O)CN1CCC(CNC(=O)c2cccc(C(F)(F)F)c2)CC1)C(C)(C)C` [Compound 542, N-((1-(2-(tert-butyl(methyl)amino)-2-oxoethyl)piperidin-4-yl)methyl)-3-(trifluoromethyl)benzamide], the IC50 on hERG K+ channel was determined as 6.4 µM; in series [1], 0.45 µM; in series [2], 0.98 µM.
The matching figures for `O=C(NCC1CCN(CC(=O)N2CCC[C@H]2C(F)(F)F)CC1)c1cc(F)cc(Cl)c1` [Compound 470, (S)-3-chloro-5-fluoro-N-((1-(2-oxo-2-(2-(trifluoromethyl)pyrrolidin-1-yl)ethyl)piperidin-4-yl)methyl)benzamide]: 2.6 µM, 0.07 µM and less than 0.3 µM.
Consider `COCC(C)(C)NC(=O)CN1CCC(CNC(=O)c2cc(F)cc(OC)c2)CC1` [Compound 567, 3-fluoro-5-methoxy-N-((1-(2-(1-methoxy-2-methylpropan-2-ylamino)-2-oxoethyl)piperidin-4-yl)methyl)benzamide], for which the figures for the IC50 (against hERG K+ channel (human); in series [1]; in series [2]) were no less than 17 µM, 0.35 µM and less than 0.3 µM, respectively.

Broadly, the IC50 is the midpoint of a concentration-inhibition curve.
